Experimental data from US4954513A, “Leukotriene antagonists” (SmithKline Beecham Corporation, priority 1988, dated 1990).

Target: T1, leukotriene induced contraction of guinea pig tracheal tissues (Cavia porcellus, UniProt Q2NNR5)
T1 construct: Guinea pig (adult male albino Hartley strain) tracheal spiral strips; from tissue; host or cells: guinea pig (adult male albino Hartley) tracheal spiral strips
T1 sequence (Q2NNR5 1-340): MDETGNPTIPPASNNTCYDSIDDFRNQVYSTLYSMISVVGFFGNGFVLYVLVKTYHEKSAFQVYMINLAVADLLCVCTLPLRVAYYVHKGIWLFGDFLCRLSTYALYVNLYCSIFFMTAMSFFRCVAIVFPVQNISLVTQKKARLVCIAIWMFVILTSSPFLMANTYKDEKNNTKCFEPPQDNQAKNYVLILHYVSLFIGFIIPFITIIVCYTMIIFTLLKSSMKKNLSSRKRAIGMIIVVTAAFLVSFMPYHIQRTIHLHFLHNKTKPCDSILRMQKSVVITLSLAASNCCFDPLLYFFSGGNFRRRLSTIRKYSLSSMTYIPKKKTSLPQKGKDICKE
Assay: Inhibition of leukotriene (LTD4) induced contraction of guinea pig tracheal spiral strips in vitro
Type: cell-based
Conditions: LTD4 concentration-response on guinea pig tracheal strips, 30 min pretreatment with test compound, meclofenamic acid 1uM; EC30 shift; current average data; read-out: -LogKB (converted)
Description: The leukotriene antagonist activity of the compounds of this invention is measured by the ability of the compounds to inhibit the leukotriene induced contraction of guinea pig tracheal tissues in vitro. The following methodology was employed: In vitro: Guinea pig (adult male albino Hartley strain) tracheal spiral strips of approximate dimensions 2 to 3 mm cross sectional width and 3.5 cm length were bathed in modified Krebs buffer in jacketed 10 ml tissue bath and continuously aerated with 95% O2 /5% CO2. The tissues were connected via silk suture to force displacement transducers for recording isometric tension. The tissues were equilibrated for 1 hr., pretreated for 15 minutes with meclofenamic acid (1uM) to remove intrinsic prostaglandin responses, and then pretreated for an additional 30 minutes with either the test compound or vehicle control. A cumulative concentration-response curve for LTD4 on triplicate tissues was generated by successive increases in the bath concentration of the LTD4. In order to minimize intertissue variability, the contractions elicited by LTD4 were standardized as a percentage of the maximum response obtained to a reference agonist, carbachol (10uM). Calculations: The averages of the triplicate LTD4 concentration response curves both in the presence and absence of the test compound were plotted on log graph paper. The concentration of LTD4 needed to elicit 30% of the contraction elicited by carbachol was measured and defined as the EC30. The -log KB value for the test compound was determined by the following equations: [formula] […] The antagonist activity of representative compounds of this invention is listed in Table I. The -log KB values were calculated from the above protocol. Where compounds were tested more than once, the -log KB values given here represent the current average data.

SMILES	Kd
O=C(O)CCSC(CC(=O)NS(=O)(=O)c1ccccc1)c1ccccc1CCCCCCCCc1ccccc1 (stereo not drawn) [Compound 2, N-[3-(Carboxyethylthio)-3-[2-(8-phenyloctyl)phenyl]]propionylbenzenesulfonamide]	316 nM
O=C(CCSC(c1ccccc1CCCCCCCCc1ccccc1)C(O)C(=O)O)NS(=O)(=O)c1ccccc1 (stereo not drawn) [2-Hydroxy-3-[2-(N-phenylsulfonylcarbamoylethyl)thio]-3-[2-(8 phenyloctyl)phenyl]propanoic acid]	39.8 nM
CS(=O)(=O)NC(=O)CC(SCCC(=O)O)c1ccccc1CCCCCCCCc1ccccc1 (stereo not drawn) [Compound 3, N-[3-(carboxyethylthio)-3-[2 (8 phenyloctyl)phenyl]propionyl]methanesulfonamide]	398 nM
